Assay results taken from patent US20210315869A1, “COMPOUNDS AND METHODS FOR CSK MODULATION AND INDICATIONS THEREFOR” (Plexxikon Inc., priority 2020, published 2021).

What was measured:
[1] = target: T1, CSK (Homo sapiens, UniProt P41240); assay: Human CSK enzymatic assay (AlphaScreen, Poly (Glu4-Tyr) substrate); assay type: biochemical; details: 100 uM ATP; read-out: CSK IC50 (μM) COFACTOR: 100 uM ATP
T1 construct: purchased Thermo Fisher
Experimental: This assay measures the ability of CSK to phosphorylate a biotinylated peptide containing multiple tyrosine residues in vitro. The CSK enzyme was purchased from Thermo Fisher. The biotinylated Poly (Glu4-Tyr) peptide substrate was purchased from Sigma-Aldrich. The CSK enzyme assay was performed using 0.75 ng CSK enzyme and 30 nM Poly (Glu4-Tyr) substrate in the presence of 25 mM Hepes pH 7.5, 5 mM Mg Acetate, 0.1% NP-40, 1 mM DTT, 0.01% BSA, and 100 μM ATP. A 19 μL volume of the above reaction mixture was added to wells of 384-well AlphaPlate (PerkinElmer GA, USA) containing 1 μL of various concentrations of test compound or DMSO vehicle and incubated for 60 minutes at room temperature. 16 wells containing all the components of reaction mixture and 5% DMSO serve as high control. 16 wells containing all the components except ATP of reaction mixture and 5% DMSO served as low control. The enzymatic reaction was stopped by the addition of 5 μL stop/detection mixture containing 25 mM Hepes pH 7.5 100 mM EDTA, and 5 μg/mL streptavidin-coated AlphaScreen donor beads (PerkinElmer GA, USA) and incubated for 20 minutes. A 5 μL mixture containing 25 mM Hepes pH 7.5, 100 mM EDTA, and 5 μg/mL anti-phosphotyrosine antibody PY20-coated AlphaScreen acceptor beads (PerkinElmer GA, USA) was added and the plate was incubated for 1 hour at room temperature. The streptavidin donor beads bind to the biotin moiety on the biotinylated Poly (Glu4-Tyr) substrate and the PY20 antibody-coated acceptor beads bind to tyrosine residues on the substrate that have been directly phosphorylated by CSK. Upon excitation of these beads with laser light at 680 nm, singlet oxygen was produced. This singlet oxygen was rapidly quenched, unless the AlphaScreen PY20 acceptor beads are in close proximity, in which case a proximity signal can be measured at 580 nm. In the presence of catalytic activity, there was a very strong proximity signal. Selective CSK inhibitors affect a decrease in this proximity signal through a decrease in phosphorylation of the Poly (Glu4-Tyr) substrate. The percentage of inhibition at individual concentrations relative to high and low controls was calculated. The data were analyzed by using nonlinear regression to generate IC50 values. Human LCK enzymatic assay

[2] = target: T2, LCK (Homo sapiens, UniProt P06239); assay: Human LCK enzymatic assay (AlphaScreen, Poly (Glu4-Tyr) substrate); assay type: biochemical; details: 100 uM ATP; read-out: LCK IC50 (uM) COFACTOR: 100 uM ATP
T2 construct: purchased ProQinase
Experimental: This assay measures the ability of LCK to phosphorylate a biotinylated peptide containing multiple tyrosine residues in vitro. The LCK enzyme was purchased from ProQinase. The biotinylated Poly (Glu4-Tyr) peptide substrate was purchased from Sigma-Aldrich. The LCK enzyme assay was performed using 1 ng LCK enzyme and 30 nM Poly (Glu4-Tyr) substrate in the presence of 25 mM Hepes pH 7.5, 10 mM MnCl2, 50 mM NaCl, 0.01% Tween-20, 0.5 mM DTT, 0.01% BSA, and 100 μM ATP. A 19 μL volume of the above reaction mixture was added to wells of 384-well AlphaPlate (PerkinElmer GA, USA) containing 1 μL of various concentrations of test compound or DMSO vehicle and incubated for 40 minutes at 25° C. 16 wells containing all the components of reaction mixture and 5% DMSO served as high control. 16 wells containing all the components except ATP of reaction mixture and 5% DMSO served as low control. The enzymatic reaction was stopped by the addition of 5 μL stop/detection mixture containing 25 mM Hepes pH 7.5 100 mM EDTA, and 10 μg/mL streptavidin-coated AlphaScreen donor beads (PerkinElmer GA, USA) and incubated for 20 minutes. A 5 μL mixture containing 25 mM Hepes pH 7.5, 100 mM EDTA, and 10 μg/mL anti-phosphotyrosine antibody PY20-coated AlphaScreen acceptor beads (PerkinElmer GA, USA) was added and the plate was incubated for 1 hour at room temperature. The streptavidin donor beads bind to the biotin moiety on the biotinylated Poly (Glu4-Tyr) substrate and the PY20 antibody-coated acceptor beads bind to tyrosine residues on the substrate that have been directly phosphorylated by LCK. Upon excitation of these beads with laser light at 680 nm, singlet oxygen was produced. This singlet oxygen was rapidly quenched, unless the AlphaScreen PY20 acceptor beads are in close proximity, in which case a proximity signal can be measured at 580 nm. In the presence of catalytic activity, there was a very strong proximity signal. Selective LCK inhibitors affect a decrease in this proximity signal through a decrease in phosphorylation of the Poly (Glu4-Tyr) substrate. The percentage of inhibition at individual concentrations relative to high and low controls was calculated. The data were analyzed by using nonlinear regression to generate IC50 values.

[3] = test system: Jurkat/NFAT-RE cells; assay: NFAT reporter assay (luciferase) in Jurkat/NFAT-RE cells; assay type: cell-based; details: Homo sapiens, 0.02 μg/mL anti-CD3 antibody OKT3, 3 hours, read-out: Jurkat EC50 (uM) Cell Assay: Reporter Cell Variant: NFAT response element
Description: To assess the ability of CSK inhibitors to activate LCK and stimulate signaling downstream of the T-cell receptor, an NFAT reporter assay was used for monitoring of LCK activation in cells through the activation of LCK-dependent signaling through a reporter assay. The Jurkat T-cell cell line was genetically engineered to express a luciferase reporter that is regulated by the NFAT-response element. (Clipstone, N. A., & Crabtree, G. R., Identification of calcineurin as a key signalling enzyme in T-lymphocyte activation, Nature, 357(6380), 695-697, 1992). Stimulation of the T-cell receptor with anti-CD3 antibody increases the expression of the luciferase reporter. To test the ability of CSK inhibitors to stimulate LCK and downstream T-cell signaling, the cells were stimulated with a suboptimal concentration of anti-CD3 ligand, to measure the ability of CSK inhibitors to increase luciferase expression.
This assay measures the signaling activity downstream of the T-cell receptor, specifically the ability of the NFAT transcription factor to be translocated to the nucleus and induce expression of a firefly luciferase gene. Jurkat/NFAT-RE cells stably expressing the NFAT reporter construct were purchased from BPS Bioscience. The assay was performed by plating 40,000 Jurkat/NFAT-RE cells in a 50 μL volume of serum-free growth media in a 96-well plate. Following an overnight incubation, the cells were treated with CSK inhibitors and 0.02 μg/mL anti-CD3 antibody OKT3 (BD Bioscience) for 3 hours at 37° C. High control wells were stimulated with DMSO and 5 μg/mL OKT3 to maximally stimulate the NFAT reporter, and low control wells were stimulated with DMSO and 0.02 μg/mL OKT3. Following the 3 hour incubation, the cells were assayed for viability using CellTiter-Fluor™ (Promega), and for luciferase expression using ONE-Glo™ (Promega). The ONE-Glo™ signal was normalized to the CellTiter-Fluor™ signal, and the percentage of NFAT activation relative to high and low controls was calculated. The data were analyzed by using nonlinear regression to generate EC50 values. Selective CSK inhibitors affect an increase in luciferase expression in the presence of low level stimulation of the T-cell receptor.

T2 sequence (P06239 whole entry): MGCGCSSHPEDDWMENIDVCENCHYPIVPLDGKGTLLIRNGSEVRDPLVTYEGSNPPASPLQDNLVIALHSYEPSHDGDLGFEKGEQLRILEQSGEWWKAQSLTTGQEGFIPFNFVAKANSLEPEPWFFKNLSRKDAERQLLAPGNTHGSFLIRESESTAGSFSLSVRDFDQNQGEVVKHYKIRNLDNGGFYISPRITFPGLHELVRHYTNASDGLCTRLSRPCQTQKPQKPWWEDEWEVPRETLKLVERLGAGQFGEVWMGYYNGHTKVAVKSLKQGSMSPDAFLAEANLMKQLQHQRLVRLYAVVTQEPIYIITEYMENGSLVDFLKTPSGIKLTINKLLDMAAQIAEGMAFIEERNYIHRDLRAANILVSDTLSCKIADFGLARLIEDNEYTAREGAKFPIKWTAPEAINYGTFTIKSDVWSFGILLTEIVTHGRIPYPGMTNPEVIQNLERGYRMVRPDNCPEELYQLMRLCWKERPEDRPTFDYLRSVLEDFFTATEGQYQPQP

Structure (SMILES) | IC50 [1] [µM] | IC50 [2] [µM] | EC50 [3] [µM]
CNc1cc2c(cn1)cc(-c1c(F)ccc(NS(=O)(=O)c3cc4scnc4cc3F)c1F)c(=O)n2CC1CC1 [P-0005, N-(3-(1-(cyclopropylmethyl)-7-(methylamino)-2-oxo-1,2-dihydro-1,6-naphthyridin-3-yl)-2,4-difluorophenyl)-5-fluorobenzo[d]thiazole-6-sulfonamide] | 0.001 to 0.5 | 5 to 100 | 0.001 to 0.5
Nc1cc2c(cn1)cc(-c1c(F)ccc(NS(=O)(=O)c3cc4scnc4cc3F)c1F)c(=O)n2C1CC(F)(F)C1 [P-0009, N-(3-(7-amino-1-(3,3-difluorocyclobutyl)-2-oxo-1,2-dihydro-1,6-naphthyridin-3-yl)-2,4-difluorophenyl)-5-fluorobenzo[d]thiazole-6-sulfonamide] | 0.001 to 0.5 | 5 to 100 | 0.5 to 5
O=c1c(-c2c(F)ccc(NS(=O)(=O)c3cc4scnc4cc3F)c2F)cc2cnc(Nc3ccn(C(F)F)n3)cc2n1C1CC1 [P-0012, N-(3-(1-cyclopropyl-7-((1-(difluoromethyl)-1H-pyrazol-3-yl)amino)-2-oxo-1,2-dihydro-1,6-naphthyndin-3-yl)-2,4-difluorophenyl)-5-fluorobenzo[d]thiazole-6-sulfonamide] | 0.001 to 0.5 | 0.5 to 5 | 0.001 to 0.5
O=c1c(-c2c(F)ccc(NS(=O)(=O)c3cc4scnc4cc3F)c2F)cc2cnc(NCCO)cc2n1C1CC1 [P-0014, N-(3-(1-cyclopropyl-7-((2-hydroxyethyl)amino)-2-oxo-1,2-dihydro-1,6-naphthyridin-3-yl)-2,4-difluorophenyl)-5-fluorobenzo[d]thiazole-6-sulfonamide] | 0.001 to 0.5 | 5 to 100 | 0.5 to 5
Nc1cc2c(cn1)cc(-c1c(F)ccc(NS(=O)(=O)c3cc4scnc4cc3F)c1F)c(=O)n2C1CCC1 [P-0024, N-(3-(7-amino-1-cyclobutyl-2-oxo-1,2-dihydro-1,6-naphthyridin-3-yl)-2,4-difluorophenyl)-5-fluorobenzo[d]thiazole-6-sulfonamide] | 0.001 to 0.5 | 5 to 100 | 0.001 to 0.5
Nc1cc2c(cn1)cc(-c1c(F)ccc(NS(=O)(=O)c3ccc4ncsc4c3)c1F)c(=O)n2C1CC1 [P-0026, N-(3-(7-amino-1-cyclopropyl-2-oxo-1,2-dihydro-1,6-naphthyridin-3-yl)-2,4-difluorophenyl)benzo[d]thiazole-6-sulfonamide] | 0.001 to 0.5 | 5 to 100 | 0.5 to 5

Results, then the compound that gave them:

IC50 [1] [µM] | IC50 [2] [µM] | EC50 [3] [µM] | Structure (SMILES)
0.001 to 0.5 | 0.5 to 5 | 0.001 to 0.5 | Nc1cc2c(cn1)cc(-c1c(F)ccc(NS(=O)(=O)c3cc4scnc4cc3F)c1F)c(=O)n2CC(F)(F)F [P-0021, N-(3-(7-amino-2-oxo-1-(2,2,2-trifluoroethyl)-1,2-dihydro-1,6-naphthyridin-3-yl)-2,4-difluorophenyl)-5-fluorobenzo[d]thiazole-6-sulfonamide]
0.001 to 0.5 | 5 to 100 | 0.001 to 0.5 | Nc1cc2c(cn1)cc(-c1c(F)ccc(NS(=O)(=O)c3cc4scnc4cc3F)c1F)c(=O)n2CC(F)(F)C1CC1 [P-0017, N-(3-(7-amino-1-(2-cyclopropyl-2,2-difluoroethyl)-2-oxo-1,2-dihydro-1,6-naphthyridin-3-yl)-2,4-difluorophenyl)-5-fluorobenzo[d]thiazole-6-sulfonnamide]
0.001 to 0.5 | 5 to 100 | 0.5 to 5 | COCCn1c(=O)c(-c2c(F)ccc(NS(=O)(=O)c3cc4scnc4cc3F)c2F)cc2cnc(N)cc21 [P-0004, N-(3-(7-amino-1-(2-methoxyethyl)-2-oxo-1,2-dihydro-1,6-naphthyridin-3-yl)-2,4-difluorophenyl)-5-fluorobenzo[d]thiazole-6-sulfonamide]
0.001 to 0.5 | 5 to 100 | 0.001 to 0.5 | Nc1cc2c(cn1)cc(-c1c(F)ccc(NS(=O)(=O)c3cc4scnc4cc3F)c1F)c(=O)n2CC(F)F [P-0003, N-(3-(7-amino-1-(2,2-difluoroethyl)-2-oxo-1,2-dihydro-1,6-naphthyridin-3-yl)-2,4-difluorophenyl)-5-fluorobenzo[d]thiazole-6-sulfonamide]
